The subject of data set [1] is SH-SY5Y. In words: Neuroprotective activity against NMDA-induced cell injury in human SH-SY5Y cells assessed as cell viability at 0.05 uM incubated for 6 hrs followed by NMDA treatment for 0.5 hrs and subsequent replacement of fresh medium without compounds by MTT assay relative to control. It is filed as functional. The following applies: time 6.5 hrs, read-out: Activity. (In general: Tetrazolium dyes change colour on reduction, which living cells bring about.)

In data set [2] the test system is SH-SY5Y. In words: Neuroprotective activity against NMDA-induced cell injury in human SH-SY5Y cells assessed as cell viability at 0.5 uM incubated for 6 hrs followed by NMDA treatment for 0.5 hrs and subsequent replacement of fresh medium without compounds by MTT assay relative to control. The following applies: time 6.5 hrs, read-out: Activity. It is filed as functional.

Data set [3] has as its system SH-SY5Y. The data set can be described thus: Neuroprotective activity against NMDA-induced cell injury in human SH-SY5Y cells assessed as cell viability at 5 uM incubated for 6 hrs followed by NMDA treatment for 0.5 hrs and subsequent replacement of fresh medium without compounds by MTT assay relative to control. It is filed as functional. The following applies: time 6.5 hrs, read-out: Activity.

A short description of data set [4]: Metabolic stability in human plasma assessed as compound remaining at 2 uM measured after 10 mins by LC-MS/MS analysis. It is filed as ADME, cell-free. As to conditions: read-out: Stability.
Data set [5] is described as follows: Metabolic stability in human plasma assessed as compound remaining at 2 uM measured immediately by LC-MS/MS analysis. It is filed as ADME, cell-free. As to conditions: read-out: Stability.
Data set [6] can be described thus: Metabolic stability in human plasma assessed as compound remaining at 2 uM measured after 30 mins by LC-MS/MS analysis. It is filed as ADME, cell-free. The following applies: read-out: Stability.
Data set [7] can be described thus: Metabolic stability in human plasma assessed as compound remaining at 2 uM measured after 60 mins by LC-MS/MS analysis. It is filed as ADME, cell-free. As to conditions: read-out: Stability.
The nature of data set [8]: Metabolic stability in human plasma assessed as compound remaining at 2 uM measured after 120 mins by LC-MS/MS analysis. It is filed as ADME, cell-free. As to conditions: read-out: Stability.
In data set [9] the target is Glutamate receptor ionotropic, NMDA 2B (Homo sapiens) (UniProt Q13224). The data set can be described thus: Antagonist activity against GluN2B NMDAR in human SH-SY5Y cells assessed as reduction in NMDA-induced intracellular influx at 5 uM incubated for 6 hrs followed by replacement of fresh medium without compounds and subsequent NMDA treatment by Fluo-4AM dye based calcium mobilization assay. It is filed as cell-based. The following applies: filed as antagonist. A general note: Calcium assays in cells follow changes in intracellular calcium, usually with a dye or a luminescent sensor.

A short description of data set [10]: Metabolic stability in human plasma assessed as half life at 2 uM by LC-MS/MS analysis. It is filed as ADME, cell-free.

Each structure is given as a SMILES string. Activity calls are given as the source filed them. A value given as a limit tells only on which side of the number the result lay.

Chain of Glutamate receptor ionotropic, NMDA 2B (Homo sapiens) (Q13224 27-1484 limits assumed): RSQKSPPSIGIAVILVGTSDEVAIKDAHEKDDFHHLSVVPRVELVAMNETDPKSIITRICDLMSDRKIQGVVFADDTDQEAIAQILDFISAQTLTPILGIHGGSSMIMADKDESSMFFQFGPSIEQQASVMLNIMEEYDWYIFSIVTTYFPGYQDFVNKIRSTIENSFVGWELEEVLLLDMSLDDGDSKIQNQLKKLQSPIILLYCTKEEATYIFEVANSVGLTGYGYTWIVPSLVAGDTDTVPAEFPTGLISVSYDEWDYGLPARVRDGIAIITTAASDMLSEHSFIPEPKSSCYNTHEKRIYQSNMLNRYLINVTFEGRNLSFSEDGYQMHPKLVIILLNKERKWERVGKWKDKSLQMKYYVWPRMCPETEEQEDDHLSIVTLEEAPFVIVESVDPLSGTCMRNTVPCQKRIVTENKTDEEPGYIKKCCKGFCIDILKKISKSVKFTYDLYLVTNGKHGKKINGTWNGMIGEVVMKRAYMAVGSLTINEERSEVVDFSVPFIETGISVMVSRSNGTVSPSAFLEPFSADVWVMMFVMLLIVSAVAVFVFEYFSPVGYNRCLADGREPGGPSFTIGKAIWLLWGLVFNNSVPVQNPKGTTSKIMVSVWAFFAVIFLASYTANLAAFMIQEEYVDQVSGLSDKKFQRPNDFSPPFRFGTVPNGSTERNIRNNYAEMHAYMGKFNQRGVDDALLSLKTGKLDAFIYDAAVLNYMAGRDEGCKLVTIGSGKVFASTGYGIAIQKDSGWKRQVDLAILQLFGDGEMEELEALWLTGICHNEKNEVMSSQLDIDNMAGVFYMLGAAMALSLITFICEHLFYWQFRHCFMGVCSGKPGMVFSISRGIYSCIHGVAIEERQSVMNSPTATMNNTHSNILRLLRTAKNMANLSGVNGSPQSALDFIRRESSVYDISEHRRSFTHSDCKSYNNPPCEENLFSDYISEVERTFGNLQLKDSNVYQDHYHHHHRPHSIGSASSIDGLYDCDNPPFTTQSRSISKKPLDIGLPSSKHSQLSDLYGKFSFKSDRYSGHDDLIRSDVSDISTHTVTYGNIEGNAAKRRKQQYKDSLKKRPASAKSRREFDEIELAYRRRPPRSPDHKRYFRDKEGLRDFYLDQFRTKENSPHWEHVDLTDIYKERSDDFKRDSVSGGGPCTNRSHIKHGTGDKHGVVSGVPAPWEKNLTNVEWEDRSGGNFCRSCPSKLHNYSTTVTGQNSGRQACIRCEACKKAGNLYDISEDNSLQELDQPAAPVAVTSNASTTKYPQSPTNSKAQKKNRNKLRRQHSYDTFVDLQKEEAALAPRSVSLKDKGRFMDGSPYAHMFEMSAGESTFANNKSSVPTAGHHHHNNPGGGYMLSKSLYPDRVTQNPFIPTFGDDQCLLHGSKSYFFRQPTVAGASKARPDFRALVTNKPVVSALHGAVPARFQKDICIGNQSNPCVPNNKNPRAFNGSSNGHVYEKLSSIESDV

In the case of `O=C(/C=C/c1ccc(O)cc1)NCCc1cn(Cc2ccc(Br)cc2)c2ccccc12`, the viability at 0.05 µM in the data set on SH-SY5Y [1] was 42.6%. The viability at 0.5 µM in the data set with SH-SY5Y [2] amounted to 36.1%. In the data set on SH-SY5Y [3], the viability at 5 µM stood at 25.5%.
For the compound `O=C(/C=C/c1ccccc1)NCCc1cn(Cc2ccccc2)c2ccccc12`, the viability at 0.05 µM with SH-SY5Y [1] is 30.4%. Also, the viability at 0.5 µM with SH-SY5Y [2] was 8.4%. In the data set on SH-SY5Y [3], the viability at 5 µM stood at 24.7%.
As to `O=C(/C=C/c1ccc(O)cc1)NCCc1cn(Cc2cccc(Cl)c2)c2ccccc12`, in the data set with SH-SY5Y [1], the viability at 0.05 µM was 32.2%. Moreover, the viability at 0.5 µM in the data set with SH-SY5Y [2] was determined as 38.8%. In addition, the viability at 5 µM with SH-SY5Y [3] was 25.2%.
For `O=C(/C=C/c1ccc(O)cc1)NCCc1cn(CC2CC2)c2ccccc12` the same measures were 19.9%, 18.6% and 9.7%.
For `O=C(NCCc1cn(Cc2ccccc2)c2ccccc12)c1ccc(O)c(O)c1` the same measures were 29.4%, 32.1% and 44.9%.
Broadly, the half-life is the time needed for the level to fall by half in the phase considered. `CC(C(O)c1ccc(O)cc1)N1CCC(Cc2ccccc2)CC1` (stereo unspecified) [IFENPRODIL]: the remaining at 10 min, 2 µM in data set [4] was found to be 97%. Moreover, the remaining at 0 min, 2 µM in data set [5] was 100%. Also, the viability at 0.05 µM in the data set with SH-SY5Y [1] turned out to be 29.4%. In addition, the remaining at 0.5 h, 2 µM in data set [6] was determined as 89.6%. Moreover, the remaining at 1 h, 2 µM in data set [7] was determined as 93.5%. Moreover, the remaining at 2 h, 2 µM in data set [8] is 91.3%. For the same compound, the viability at 0.5 µM with SH-SY5Y [2] came to 40.4%. Moreover, in data set [9], the result was Active. Further, the viability at 5 µM in the data set on SH-SY5Y [3] came to 41%. Moreover, the half-life at 2 µM in data set [10] is more than 4.82 h.
Regarding `O=C(/C=C/c1ccc(O)cc1)NCCc1cn(Cc2ccccc2Br)c2ccccc12`, the viability at 0.05 µM in the data set on SH-SY5Y [1] came to 45.1%. Also, in the data set with SH-SY5Y [2], the viability at 0.5 µM worked out at 32.3%. Besides, the viability at 5 µM in the data set with SH-SY5Y [3] stood at 36.7%.
On to `Cc1ccc(Cn2cc(CCNC(=O)/C=C/c3ccc(O)cc3)c3ccccc32)cc1`, for which the viability at 0.05 µM in the data set on SH-SY5Y [1] is 19.4%. Moreover, in the data set with SH-SY5Y [2], the viability at 0.5 µM stood at 28.4%. The viability at 5 µM with SH-SY5Y [3] was 21%.
For `O=C(/C=C/c1ccc(O)cc1)NCCc1cn(Cc2cccc(F)c2)c2ccccc12` the same measures were 28.6%, 21.8% and 18.8%.
For `O=C(/C=C/c1ccc(O)c(O)c1)NCCc1cn(Cc2ccccc2)c2ccccc12` the same measures were 34.8%, 47.1% and 48.2%.
The matching figures for `O=C(/C=C/c1ccc(O)cc1)NCCc1cn(Cc2ccccc2Cl)c2ccccc12`: 13.6%, 10.1% and 5.9%.
Take `O=C(NCCc1cn(Cc2ccccc2)c2ccccc12)c1ccc(O)cc1`: in the data set with SH-SY5Y [1], the viability at 0.05 µM worked out at 31.7%. In addition, in the data set with SH-SY5Y [2], the viability at 0.5 µM is 54.3%. Moreover, in the data set with SH-SY5Y [3], the viability at 5 µM came to 51.4%.
The matching figures for `O=C(/C=C/c1ccc(O)cc1)NCCc1cn(Cc2ccc(Cl)cc2)c2ccccc12`: 31.9%, 22.5% and 21.7%.
